Experimental data taken from patent US4155930A, “Ureylene phenylene anionic naphthalenesulfonic acids” (American Cyanamid Company, priority 1978, dated 1979).
Where a name gives a salt, the structure may show the parent alone.

System: shunt pathway
Experiment: Test Code 036 (C-Shunt inhibitor), lysis of fragile human erythrocytes in autologous serum, cobra venom factor activated
Format: biochemical
Parameters: key: N=Negative (no activity)
Details: serial two-fold dilution assay; higher well number indicates higher activity; N = negative
Excerpt: An active inhibitor protects C2 from C1 and C4; (ii) Test Code 035 (C3-C9 inhibitor)--This test determines the ability of the late components of human complement (C3-C9) to lyse EAC 142 in the presence of appropriate dilutions of the test compound. An active inhibitor products EAC 142 from lysis by human C3-C9; (iii) Test Code 036 (C-Shunt inhibitor)--In this test human erythrocytes rendered fragile are lysed in autologous serum via the shunt pathway activated by cobra venom factor in the presence of appropriate dilutions of the test compound. Inhibition of the shunt pathway results in failure of lysis; (iv) Forssman Vasculitis Test--Here, the well known complement dependent lesion, Forssman vasculitis, is produced in guinea pigs by intradermal injection of rabbit anti-Forssman antiserum. The lesion is measured in terms of diameter, edema and hemorrhage and the extent to which a combined index of these is inhibited by prior intraperitoneal injection of the test compound at 200 mg/kg is then reported, unless otherwise stated; (v) Forssman Shock Test--Lethal shock is produced in guinea pigs by an i.v. injection of anti-Forssman antiserum and the harmonic mean death time of treated guinea pigs is compared with that of simultaneous controls; (vi) Complement Level Reduction Test--In this test, the above dosed guinea pigs, or others, are bled for serum and the complement level is determined in undiluted serum by the capillary tube method of U.S. Pat. No. 3,876,376 and compared to undosed control guinea pigs; and (vii) Cap 50 Test--Here, appropriate amounts of the test compound are added to a pool of guinea pig serum in vitro, after which the undiluted serum capillary tube assay referred to above is run. The concentration of compound inhibiting 50% is reported.

Question: Which “Shunt Inhibition 036* Wells” value does the source give for `O=C(Nc1cccc(S(=O)(=O)Nc2cccc(S(=O)(=O)Nc3cc(S(=O)(=O)O)cc4cc(S(=O)(=O)O)cc(S(=O)(=O)O)c34)c2)c1)Nc1cccc(S(=O)(=O)Nc2cccc(S(=O)(=O)Nc3cc(S(=O)(=O)O)cc4cc(S(=O)(=O)O)cc(S(=O)(=O)O)c34)c2)c1` [8,8'-[Ureylenebis[[(1,3-phenylenesulfonylimino)-1,3-phenylenesulfonyl]imino]]di-1,3,6-naphthalenetrisulfonic acid, hexasodium salt] here?
Answer: The value was “+1 Wells”.

Question: How did the “Shunt Inhibition 036* Wells” value turn out when `Cc1ccc(NC(=O)Nc2ccc(C)c(S(=O)(=O)Nc3ccc(C)c(S(=O)(=O)Nc4cc(S(=O)(=O)[O-])cc5cc(S(=O)(=O)[O-])cc(S(=O)(=O)[O-])c45)c3)c2)cc1S(=O)(=O)Nc1ccc(C)c(S(=O)(=O)Nc2cc(S(=O)(=O)[O-])cc3cc(S(=O)(=O)[O-])cc(S(=O)(=O)[O-])c23)c1.[Na+].[Na+].[Na+].[Na+].[Na+].[Na+]` [8,8'-[Ureylenebis[[[(6-methyl-3,1-phenylene)sulfonyl]imino]-[[(6-methyl-3,1-phenylene)sulfonyl]imino]]]di-1,3,6-naphthalenetrisulfonic acid, hexasodium salt] was run?
Answer: The value was “N”.

Question: With `Cc1ccc(S(=O)(=O)Nc2ccc(S(=O)(=O)[O-])c3cc(S(=O)(=O)[O-])cc(S(=O)(=O)[O-])c23)cc1NS(=O)(=O)c1cccc(NC(=O)Nc2cccc(S(=O)(=O)Nc3cc(S(=O)(=O)Nc4ccc(S(=O)(=O)[O-])c5cc(S(=O)(=O)[O-])cc(S(=O)(=O)[O-])c45)ccc3C)c2)c1.[Na+].[Na+].[Na+].[Na+].[Na+].[Na+]` [8,8'-[Ureylenebis[(m-phenylenesulfonylimino)(4-methyl-3,1-phenylenesulfonyl)imino]]di-1,3,5-naphthalenetrisulfonic acid, hexasodium salt] as the compound, how does the “Shunt Inhibition 036* Wells” value read?
Answer: Its value is “N”.
